Literature values as cited in patent publication US5989558A, “Method of using rosmarinus officinalis for treating various diseases” (priority 1997, dated 1999).
Like-named read-outs stand apart in the source and are kept apart here.

Key:
[1] = 400 mg three times a day

Row | SMILES | ulcers healed ([1]; after 60 days) | further ulcer healed ([1]; after 120 days) | patients able to complete the six month program ([1]; of 12 patients, limited by side effects) | ulcer size reduction ([1]; one ulcer, after six months) | nausea as side effect (in vivo) | nausea as side effect (treatment of dizziness, poor hearing, and tinnitus)
1 | CC(=O)CCCCn1c(=O)c2c(ncn2C)n(C)c1=O [pentoxifylline] | 7 ulcers | Another ulcer healed after 120 days | 9 patients | reduced in size from 4 cm to 2 cm | all of the drugs cause nausea | –
2 | Fc1ccc(C(c2ccc(F)cc2)N2CCN(C/C=C/c3ccccc3)CC2)cc1 [flunarizine] | – | – | – | – | – | all of the drugs cause nausea
